Reference: US20260174778A1, “SULFONAMIDE COMPOUND, AND PREPARATION METHOD THEREFOR AND USE THEREOF” (SHANGHAI HENLIUS BIOTECH, INC., priority 2023, published 2026)
Where two headings read alike, the source gives them in different places.

Legend:
[1] = target: T1, KAT6A (Homo sapiens, UniProt Q92794); assay: Inhibition of human KAT enzymes, radioisotope method: KAT6A; type: biochemical; conditions: KAT6A (488-778)
T1 construct: purchased ACTIVE MOTIF 81223
Text: (§1) Test Example 2: Selective Inhibitory Effects of Test Compounds on Human KAT6 Enzymes (Radioisotope Method)
(§2) • 1. KAT6A (ACTIVE MOTIF, Cat. No. 81223) • 2. KAT5 (BPS, Cat. No. 79422) • 3. KAT7 (ACTIVE MOTIF, Cat. No. 31889) • 4. KAT6B (ACTIVE MOTIF, Cat. No. 81224) • 5. Acetyl coenzyme A, [Acetyl-^3H, 250 μCi (9.25 MBq](PEIRKIN4 ELMER, Cat. No. NET290250UC) • 6. Acetyl coenzyme A (CAYMVAN, Cat. No. 16160) • 7. 384-well Flashplate (Perkin Elmer, Cat. No. SMP410A001PK) • 8. Garcinol (MCE, Cat. No. HY-107569) • 9. Automatic microplate pipetting system (Precision, PRC384U, BioTek) • 10. Ultrasonic nanoliter liquid handling system (Echo 650 Liquid Handler, Echo 650, Labcyte) • 11. Centrifuge (Avanti J-15R, Beckman Coulter) • 12. Liquid scintillation counter (Microplate Counter, Microbeta2, Perkin Elmer)
(§3) • 1. For KAT6A and KAT7, a 1× assay buffer was prepared as follows: 10 mM Tris-HCl pH 8.0, 0.01% Tween-20, and 1 mM DTT; for KAT6B and KAT5, a 1× assay buffer was prepared as follows: 50 mM Tris-HCl pH 8.0, 0.05% Tween-20, and 1 mM DTT. • 2. Compound preparation: For KAT6A, KAT6B, and KAT7, the final concentration of the compounds started at 1 μM, followed by a 5-fold serial dilution across a total of 7 concentration gradients; for KAT5, the final concentration of the compounds started at 10 μM, followed by a 5-fold serial dilution across a total of 7 concentration gradients. • 3. Substrate reaction solution preparation: The mixed substrates of H4 peptide and [3H]acetyl coenzyme A at final concentrations were prepared using the respective 1× assay buffers, as shown in Table 4.
(§4) • 1. The enzyme solution was transferred to 384-well reaction plates at 10 μL/well. For each negative control well, 10 μL of the 1× assay buffer was transferred. The plates were then centrifuged at 1000 RPM for 1 min and incubated at room temperature for 15 min. • 2. The substrate reaction solution was added at 10 μL/well, and the plates were centrifuged at 1000 RPM for 1 min to start the reaction. • 3. The samples for KAT6A, KAT6B, KAT7, KAT8, and KAT5 were then incubated at room temperature for 60 min, 120 min, 45 min, 60 min, and 120 min, respectively. • 4. Stop solution preparation: A stop solution was prepared by diluting 50 µM cold Ac-CoA in 1× buffer. • 5. The stop solution was added at 10 μL/well, and the plates were centrifuged at […] for 1 min to stop the reaction. • 6. The mixtures in the reaction plates were transferred at 25 μL/well to new plates (Streptavidin FlashPlate HTS PLUS, High Capacity, 384-well). • 7. The plates were incubated at room temperature for at least 60 min and then • 8. read using MicroBeta2.
(§5) Raw data were obtained in EXCEL, and the inhibition rates were calculated:
(§6) [formula] [formula] • Max signal: reaction signal from enzyme and substrate; • Sample signal: signal from sample; • Min signal: signal from substrate only (negative control).
(§7) The inhibition rate data were imported into XLFit Excel, and IC50 values were obtained using formula (2):
(§8) [formula] [formula] • Top: value of the top plateau of the fitted regression curve; • Bottom: value of the bottom plateau of the fitted regression curve; • HillSlope: slope of the fitted regression curve.
(§9) The IC50 value was substituted into formula (3) to obtain the enzymatic activity inhibition constant Ki:
(§10) [formula] • [S]: substrate concentration; Km: Michaelis constant.

[2] = target: T2, KAT6B (Homo sapiens, UniProt Q8WYB5); assay: Inhibition of human KAT enzymes, radioisotope method: KAT6B; type: biochemical; conditions: KAT6B (718-1008)
T2 construct: purchased ACTIVE MOTIF 81224
T2 sequence (Q8WYB5 whole entry): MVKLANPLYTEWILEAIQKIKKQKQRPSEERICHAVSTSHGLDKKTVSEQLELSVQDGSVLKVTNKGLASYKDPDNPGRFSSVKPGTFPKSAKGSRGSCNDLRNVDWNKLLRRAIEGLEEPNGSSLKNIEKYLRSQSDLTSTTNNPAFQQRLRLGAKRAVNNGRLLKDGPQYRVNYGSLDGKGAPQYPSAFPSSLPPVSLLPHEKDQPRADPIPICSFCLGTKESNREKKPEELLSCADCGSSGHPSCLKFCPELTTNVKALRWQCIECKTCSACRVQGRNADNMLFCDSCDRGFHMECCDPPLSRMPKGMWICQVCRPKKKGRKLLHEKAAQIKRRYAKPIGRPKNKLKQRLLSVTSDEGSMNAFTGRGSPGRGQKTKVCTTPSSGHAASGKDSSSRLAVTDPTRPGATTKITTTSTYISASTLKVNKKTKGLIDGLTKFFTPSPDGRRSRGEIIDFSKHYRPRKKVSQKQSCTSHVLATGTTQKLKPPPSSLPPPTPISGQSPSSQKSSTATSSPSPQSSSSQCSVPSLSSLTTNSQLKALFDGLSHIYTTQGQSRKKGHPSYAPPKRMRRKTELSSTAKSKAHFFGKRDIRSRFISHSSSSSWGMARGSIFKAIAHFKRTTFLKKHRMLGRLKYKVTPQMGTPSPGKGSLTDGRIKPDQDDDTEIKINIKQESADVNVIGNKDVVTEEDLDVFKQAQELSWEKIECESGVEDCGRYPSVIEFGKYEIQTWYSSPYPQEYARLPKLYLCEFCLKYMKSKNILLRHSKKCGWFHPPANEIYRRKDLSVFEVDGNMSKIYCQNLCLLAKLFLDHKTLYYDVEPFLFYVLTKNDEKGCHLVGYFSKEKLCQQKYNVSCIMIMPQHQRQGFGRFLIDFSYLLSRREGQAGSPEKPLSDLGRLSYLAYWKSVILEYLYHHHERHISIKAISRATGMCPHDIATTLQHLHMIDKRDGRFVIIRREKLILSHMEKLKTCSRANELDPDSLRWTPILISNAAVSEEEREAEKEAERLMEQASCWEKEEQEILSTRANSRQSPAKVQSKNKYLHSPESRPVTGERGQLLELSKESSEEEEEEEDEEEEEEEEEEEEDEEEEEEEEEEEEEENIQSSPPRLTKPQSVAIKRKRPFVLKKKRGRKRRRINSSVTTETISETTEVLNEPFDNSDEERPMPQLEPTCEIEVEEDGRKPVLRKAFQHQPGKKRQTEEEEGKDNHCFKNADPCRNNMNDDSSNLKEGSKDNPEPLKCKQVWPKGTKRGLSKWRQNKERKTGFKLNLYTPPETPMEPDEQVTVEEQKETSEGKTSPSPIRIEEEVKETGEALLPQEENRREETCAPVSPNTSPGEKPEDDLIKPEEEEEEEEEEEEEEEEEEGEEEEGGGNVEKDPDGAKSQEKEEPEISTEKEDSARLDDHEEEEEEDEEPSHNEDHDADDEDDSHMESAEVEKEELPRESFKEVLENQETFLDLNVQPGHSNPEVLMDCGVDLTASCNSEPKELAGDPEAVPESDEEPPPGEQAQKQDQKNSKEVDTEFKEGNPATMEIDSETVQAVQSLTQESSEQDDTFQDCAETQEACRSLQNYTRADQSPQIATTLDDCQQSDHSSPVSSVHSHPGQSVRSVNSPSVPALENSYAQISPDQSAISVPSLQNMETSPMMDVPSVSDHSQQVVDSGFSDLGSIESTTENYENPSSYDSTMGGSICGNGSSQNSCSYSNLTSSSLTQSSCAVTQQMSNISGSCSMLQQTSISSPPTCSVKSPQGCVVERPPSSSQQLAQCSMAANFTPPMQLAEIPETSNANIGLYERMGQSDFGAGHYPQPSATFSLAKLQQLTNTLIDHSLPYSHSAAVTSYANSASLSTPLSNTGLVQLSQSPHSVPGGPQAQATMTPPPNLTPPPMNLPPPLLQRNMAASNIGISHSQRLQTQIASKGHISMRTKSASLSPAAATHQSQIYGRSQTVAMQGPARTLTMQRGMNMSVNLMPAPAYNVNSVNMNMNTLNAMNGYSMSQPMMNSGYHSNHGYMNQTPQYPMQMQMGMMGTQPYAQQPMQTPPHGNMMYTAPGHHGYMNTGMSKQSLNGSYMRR
Text: as §1, §2, §3, §4, §5, §6, §7, §8, §9, §10

[3] = target: T3, KAT5 (Homo sapiens, UniProt Q92993); assay: Inhibition of human KAT enzymes, radioisotope method: KAT5; type: biochemical; conditions: for Ki: KAT5 (full-length), radioisotope method; for KAT5/ KAT6A / KAT5/ KAT6B: selectivity, ratio of Ki
T3 construct: purchased BPS 79422
T3 sequence (Q92993 whole entry): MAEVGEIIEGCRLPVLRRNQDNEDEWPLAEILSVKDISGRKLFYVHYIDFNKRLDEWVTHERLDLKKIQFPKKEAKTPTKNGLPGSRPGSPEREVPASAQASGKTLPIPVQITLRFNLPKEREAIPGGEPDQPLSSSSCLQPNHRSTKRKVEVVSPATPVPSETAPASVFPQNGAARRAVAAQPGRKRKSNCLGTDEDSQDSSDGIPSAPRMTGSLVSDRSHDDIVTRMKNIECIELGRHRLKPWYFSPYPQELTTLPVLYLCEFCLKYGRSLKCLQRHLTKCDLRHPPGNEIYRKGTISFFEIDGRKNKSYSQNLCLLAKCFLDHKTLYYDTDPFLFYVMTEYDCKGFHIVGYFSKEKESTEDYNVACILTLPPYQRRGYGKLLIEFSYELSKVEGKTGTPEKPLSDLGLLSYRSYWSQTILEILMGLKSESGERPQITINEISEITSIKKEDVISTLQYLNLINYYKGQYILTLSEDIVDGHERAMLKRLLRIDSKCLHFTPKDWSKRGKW
Text: as §1, §2, §3, §4, §5, §6, §7, §8, §9, §10

[4] = Pharmacokinetics in SD (Sprague Dawley) rats; type: in vivo; conditions: rat, plasma, female SD rats; for clearance: read-out: CL (clearance rate); for half-life: read-out: T1/2 (half-life) (converted); for Vd: read-out: Vdss (apparent volume of distribution); for bioavailability: read-out: F (bioavailability)
Protocol: Test Example 3: Determination of Pharmacokinetic Data of Compounds in SD (Sprague Dawley) Rats
The pharmacokinetic characteristics of some of the compounds of the present disclosure were evaluated by a pharmacokinetic experiment in SD rats.
Female SD rats aged 6-8 weeks from Shanghai Jihui Laboratory Animal Care Co., Ltd. were selected. The test animals were fasted overnight before administration, and feeding was resumed 4 h after administration. The compounds were dissolved in 5% DMSO+5% Tween 80+90% normal saline. For a single intravenous administration, the administration dose was 1 mg/kg, and the administration volume was 2 mL/kg. For a single intragastric administration, the administration dose was 2 mg/kg, and the administration volume was 10 mL/kg. Blood was collected at 0.083 h (for intravenous administration only), 0.25 h, 0.5 h, 1 h, 2 h, 4 h, 8 h, and 24 h after administration. At each indicated time point, about 150 μL of blood sample was collected from each rat via the vein and placed into an EDTA-K2 tube. Each sample was centrifuged (2000 g, 4° C., 5 min) within 15 min after sample collection to obtain plasma, which was then stored at −70° C. until analysis. The concentration of the corresponding test compound in the SD rat plasma was determined using UPLC-MS/MS.

[5] = target: T4, KAT7 (Homo sapiens, UniProt O95251); assay: Inhibition of human KAT enzymes, radioisotope method: KAT7; type: biochemical; conditions: for Ki: KAT7 (full-length), radioisotope method; for KAT7/ KAT6A / KAT7/ KAT6B: selectivity, ratio of Ki
T4 construct: purchased ACTIVE MOTIF 31889
Text: as §1, §2, §3, §4, §5, §6, §7, §8, §9, §10

T1 sequence (Q92794 whole entry): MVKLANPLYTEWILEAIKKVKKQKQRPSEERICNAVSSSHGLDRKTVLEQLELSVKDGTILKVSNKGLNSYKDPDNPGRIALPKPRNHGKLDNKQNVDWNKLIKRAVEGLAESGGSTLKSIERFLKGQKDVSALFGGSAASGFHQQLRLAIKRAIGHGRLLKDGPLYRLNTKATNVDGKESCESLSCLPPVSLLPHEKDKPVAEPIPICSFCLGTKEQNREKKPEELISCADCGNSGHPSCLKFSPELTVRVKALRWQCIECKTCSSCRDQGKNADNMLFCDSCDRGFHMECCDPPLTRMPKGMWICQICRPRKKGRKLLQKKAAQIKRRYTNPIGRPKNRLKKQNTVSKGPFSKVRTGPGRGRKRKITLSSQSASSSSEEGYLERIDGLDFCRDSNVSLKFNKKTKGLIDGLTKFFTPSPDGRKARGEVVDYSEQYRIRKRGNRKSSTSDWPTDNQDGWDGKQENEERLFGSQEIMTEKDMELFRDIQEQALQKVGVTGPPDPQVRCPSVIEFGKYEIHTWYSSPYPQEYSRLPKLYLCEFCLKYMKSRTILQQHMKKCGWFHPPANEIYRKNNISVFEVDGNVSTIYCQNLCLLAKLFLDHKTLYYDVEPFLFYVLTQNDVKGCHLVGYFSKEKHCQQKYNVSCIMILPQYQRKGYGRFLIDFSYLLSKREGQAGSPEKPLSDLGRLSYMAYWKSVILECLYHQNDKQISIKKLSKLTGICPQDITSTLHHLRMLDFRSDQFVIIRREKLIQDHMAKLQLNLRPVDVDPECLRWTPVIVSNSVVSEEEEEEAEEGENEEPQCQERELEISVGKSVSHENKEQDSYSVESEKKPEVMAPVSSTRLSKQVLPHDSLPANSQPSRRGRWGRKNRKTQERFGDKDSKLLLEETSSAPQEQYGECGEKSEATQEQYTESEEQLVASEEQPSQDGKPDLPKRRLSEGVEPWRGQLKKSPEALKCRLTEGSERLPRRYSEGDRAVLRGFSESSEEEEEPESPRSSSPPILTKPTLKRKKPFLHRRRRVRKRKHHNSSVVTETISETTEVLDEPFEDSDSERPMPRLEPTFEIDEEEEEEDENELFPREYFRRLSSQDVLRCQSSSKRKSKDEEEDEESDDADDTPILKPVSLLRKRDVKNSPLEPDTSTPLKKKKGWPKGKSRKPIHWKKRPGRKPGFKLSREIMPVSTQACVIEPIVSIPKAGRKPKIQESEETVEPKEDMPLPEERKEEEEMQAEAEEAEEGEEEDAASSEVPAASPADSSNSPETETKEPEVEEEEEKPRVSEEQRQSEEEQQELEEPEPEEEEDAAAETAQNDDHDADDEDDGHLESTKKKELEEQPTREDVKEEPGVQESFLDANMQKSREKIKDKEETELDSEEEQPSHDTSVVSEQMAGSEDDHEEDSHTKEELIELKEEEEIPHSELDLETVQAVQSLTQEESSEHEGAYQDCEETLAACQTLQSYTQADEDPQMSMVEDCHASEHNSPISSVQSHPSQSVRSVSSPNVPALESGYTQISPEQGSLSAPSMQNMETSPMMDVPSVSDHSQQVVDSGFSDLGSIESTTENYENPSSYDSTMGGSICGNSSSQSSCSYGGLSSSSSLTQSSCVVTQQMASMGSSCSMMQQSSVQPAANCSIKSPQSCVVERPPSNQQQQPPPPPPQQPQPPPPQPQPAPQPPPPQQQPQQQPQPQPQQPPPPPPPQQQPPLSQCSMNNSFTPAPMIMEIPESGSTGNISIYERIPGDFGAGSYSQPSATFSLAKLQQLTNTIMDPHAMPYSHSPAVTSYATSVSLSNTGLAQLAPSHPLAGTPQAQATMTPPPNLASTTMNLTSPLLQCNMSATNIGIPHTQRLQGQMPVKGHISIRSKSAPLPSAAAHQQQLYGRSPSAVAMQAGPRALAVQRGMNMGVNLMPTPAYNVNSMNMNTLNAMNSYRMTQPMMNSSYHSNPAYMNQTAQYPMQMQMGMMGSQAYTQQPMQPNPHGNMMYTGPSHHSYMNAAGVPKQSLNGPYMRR

Row | Structure (SMILES) | Ki [1] [nM] | Ki [2] [nM] | Ki [3] [nM] | KAT5/ KAT6A [3] | KAT5/ KAT6B [3] | AUC(0-inf) ([4]; iv, i.v. 1 mg/kg) [ng·h/mL] | clearance ([4]; iv, i.v. 1 mg/kg) [mL/min/kg] | half-life ([4]; iv, i.v. 1 mg/kg) [h] | Vd ([4]; iv, i.v. 1 mg/kg) [L/kg] | AUC(0-inf) ([4]; po, p.o. 2 mg/kg) [ng·h/mL] | bioavailability ([4]; po, p.o. 2 mg/kg) [%] | half-life ([4]; po, p.o. 2 mg/kg) [h] | Ki [5] [nM] | KAT7/ KAT6A [5] | KAT7/ KAT6B [5]
1 | COc1ccc2c(c1S(=O)(=O)Nc1noc3cc(Cn4cccn4)c(F)c(OC)c13)OCCO2 [Compound 28, N-(6-((1H-Pyrazol-1-yl)methyl)-5-fluoro-4-methoxybenzo[d]isoxazol-3-yl)-6-methoxy-2,3-dihydrobenzo[b][1,4]dioxine-5-sulfonamide] | 0.2 | 0.9 | 649 | 3243 | 721 | 22600 | 0.761 | 5.87 | 0.295 | 42800 | 94.7 | 6.73 | 40.6 | 203 | 45
2 | COc1ccc2c(c1S(=O)(=O)Nc1noc3cc(Cn4cccn4)c(F)c(OC)c13)OCCC2=O [Compound 42, N-(6-((1H-Pyrazol-1-yl)methyl)-5-fluoro-4-methoxybenzo[d]isoxazol-3-yl)-7-methoxy-4-oxochromane-8-sulfonamide] | – | – | – | – | – | 10200 | 1.69 | 3.79 | 0.261 | 11300 | 55 | 3.31 | – | – | –
3 | COc1ccc2c(c1S(=O)(=O)Nc1noc3cc(Cn4cccn4)c(F)c(OC)c13)OCC=C2 [Compound 101, N-(6-((1H-Pyrazol-1-yl)methyl)-5-fluoro-4-methoxybenzo[d]isoxazol-3-yl)-7-methoxy-2H-chromene-8-sulfonamide] | 0.21 | 0.65 | 79.6 | 379 | 122 | 48100 | 0.35 | 8.88 | 0.237 | 89100 | 92.5 | 9.21 | 7.39 | 35 | 11
4 | COc1ccc2c(c1S(=O)(=O)Nc1noc3cc(Cn4cccn4)c(F)c(OC)c13)OCCN2C [Compound 109, N-(6-((1H-Pyrazol-1-yl)methyl)-5-fluoro-4-methoxybenzo[d]isoxazol-3-yl)-7-methoxy-4-methyl-3,4-dihydro-2H-benzo[b][1,4]oxazine-8-sulfonamide] | 0.47 | 0.9 | 286 | 609 | 318 | 90700 | 0.185 | 8.57 | 0.119 | 187000 | 96 | 9.73 | 54.7 | 116 | 61
5 | COc1ccc2c(c1S(=O)(=O)Nc1noc3cc(Cn4cccn4)c(F)c(OC)c13)OCCCO2 [Compound 114, N-(6-((1H-Pyrazol-1-yl)methyl)-5-fluoro-4-methoxybenzo[d]isoxazol-3-yl)-7-methoxy-3,4-dihydro-2H-benzo[b][1,4]dioxepine-6-sulfonamide] | 0.38 | 2.49 | 1850 | 4880 | 745 | 39200 | 0.462 | 17.2 | 0.608 | 97900 | 144 | 13 | 174 | 458 | 70
6 | COc1ccc2c(c1S(=O)(=O)Nc1noc3cc(Cn4cccn4)c(F)c(OC)c13)OCCCN2C [Compound 115, N-(6-((1H-Pyrazol-1-yl)methyl)-5-fluoro-4-methoxybenzo[d]isoxazol-3-yl)-8-methoxy-5-methyl-2,3,4,5-tetrahydrobenzo[b][1,4]oxazepine-9-sulfonamide] | 0.63 | 6.48 | 5040 | 7998 | 778 | 47500 | 0.363 | 14.3 | 0.408 | 109000 | 105 | 15.9 | 493 | 782 | 76
7 | COc1ccccc1S(=O)(=O)Nc1noc2cc(Cn3cccn3)cc(OC)c12 [PF-8144, reference compound] | 0.58 | 5.18 | 672 | 1159 | 130 | 28300 | 0.597 | 3.16 | 0.143 | 55500 | 98 | 3.79 | 85.7 | 148 | 17
